Measurements published in patent US7829568B2, “Substituted 5,6,7,8-tetrahydroimidazo[1,2-a]pyridin-2-ylamine compounds and their use for producing drugs” (Gruenenthal GmbH, priority 2005, dated 2010).

System: batrachotoxin (BTX) binding site of the sodium channel
Experiment: Affinity to the batrachotoxin (BTX) binding site of the sodium channel
Design: species or system rat
Details: [3H]-batrachotoxinin A20 α-benzoate 10 nM; synaptosomes from rat cerebral cortex; test concentration not given

SMILES	BTX inhibition (rat) (% inhibition)
CCCCN(C(=O)c1cccc(Cl)c1)c1nc2n(c1C(=O)NCc1ccc(OC(F)(F)F)cc1)CCCC2 [Example 127, 2-[butyl-(3-chloro-benzoyl)-amino]-5,6,7,8-tetrahydro-imidazo[1,2-a]pyridine-3-carboxylic acid 4-trifluoromethoxy-benzylamide]	60%
CN(C(=O)c1cccc(Cl)c1)c1nc2n(c1C(=O)NCCC(c1ccccc1)c1ccccc1)CCCC2 [Example 128, 2-[(3-chloro-benzoyl)-methyl-amino]-5,6,7,8-tetrahydro-imidazo[1,2-a]pyridine-3-carboxylic acid (3,3-diphenyl-propyl)-amide]	85%
CN(C(=O)c1cccc(Cl)c1)c1nc2n(c1C(=O)Nc1ccc(OCc3ccccc3)cc1)CCCC2 [Example 129, 2-[(3-chloro-benzoyl)-methyl-amino]-5,6,7,8-tetrahydro-imidazo[1,2-a]pyridine-3-carboxylic acid (4-benzyloxy-phenyl)-amide]	76%
CCOc1ccc(Br)cc1CN1CCN(C(=O)c2c(N(C)C(=O)Cc3ccccc3)nc3n2CCCC3)CC1 [Example 130, N-{3-[4-(5-bromo-2-ethoxy-benzyl)-piperazine-1-carbonyl]-5,6,7,8-tetrahydro-imidazo[1,2-a]pyridin-2-yl}-N-methyl-2-phenyl-acetamide]	67%
CCCCN(C(=O)c1cccc(Cl)c1)c1nc2n(c1C(=O)NCc1cccc(C)c1C)CCCC2 [Example 133, 2-[butyl-(3-chloro-benzoyl)-amino]-5,6,7,8-tetrahydro-imidazo[1,2-a]pyridine-3-carboxylic acid 2,3-dimethyl-benzylamide]	34%
CCCCN(C(=O)c1cccc(Cl)c1)c1nc2n(c1C(=O)NCCc1ccc(Oc3ccccc3)cc1)CCCC2 [Example 134, 2-[butyl-(3-chloro-benzoyl)-amino]-5,6,7,8-tetrahydro-imidazo[1,2-a]pyridine-3-carboxylic acid [2-(4-phenoxy-phenyl)-ethyl]-amide]	93%
CCc1ccccc1N1CCN(C(=O)c2c(N(C)C(=O)c3cccc4ccccc34)nc3n2CCCC3)CC1 [Example 136, naphthalene-1-carboxylic acid {3-[4-(2-ethyl-phenyl)-piperazine-1-carbonyl]-5,6,7,8-tetrahydro-imidazo[1,2-a]pyridin-2-yl}-methyl-amide]	54%
CCCCN(C(=O)c1ccc(F)c(F)c1)c1nc2n(c1C(=O)N1CCN(Cc3ccc4c(c3)OCO4)CC1)CCCC2 [Example 137, N-[3-(4-benzo[1,3]dioxol-5-ylmethyl-piperazine-1-carbonyl)-5,6,7,8-tetrahydro-imidazo[1,2-a]pyridin-2-yl]-N-butyl-3,4-difluor-benzamide]	72%
CCCCN(C(=O)c1ccc(F)c(F)c1)c1nc2n(c1C(=O)N1CCN(c3cc(C)ccc3C)CC1)CCCC2 [Example 138, N-butyl-N-{3-[4-(2,5-dimethyl-phenyl)-piperazine-1-carbonyl]-5,6,7,8-tetrahydro-imidazo[1,2-a]pyridin-2-yl}-3,4-difluoro-benzamide]	80%
CN(C(=O)c1cccc2ccccc12)c1nc2n(c1C(=O)NC(c1ccccc1)c1ccc(Cl)cc1)CCCC2 (stereo not shown) [Example 139, 2-[methyl-(naphthalene-1-carbonyl)-amino]-5,6,7,8-tetrahydro-imidazo[1,2-a]pyridine-3-carboxylic acid [(4-chlor-phenyl)-phenyl-methyl]-amide]	73%
CCCCN(C(=O)c1cccc(Cl)c1)c1nc2n(c1C(=O)N1CCN(Cc3ccc(Cl)cc3)CC1)CCCC2 [Example 140, N-butyl-3-chloro-N-{3-[4-(4-chloro-benzyl)-piperazine-1-carbonyl]-5,6,7,8-tetrahydro-imidazo[1,2-a]pyridin-2-yl}-benzamide]	81%
CCCCN(C(=O)c1cccc(Cl)c1)c1nc2n(c1C(=O)NC(C)c1ccc3ccccc3c1)CCCC2 (stereo not shown) [Example 141, 2-[butyl-(3-chloro-benzoyl)-amino]-5,6,7,8-tetrahydro-imidazo[1,2-a]pyridine-3-carboxylic acid (1-naphthalen-2-yl-ethyl)-amide]	41%
CN(C(=O)c1cccc2ccccc12)c1nc2n(c1C(=O)N1CCc3c([nH]c4ccccc34)C1)CCCC2 [Example 144, naphthalene-1-carboxylic acid methyl-[3-(1,3,4,9-tetrahydro-b-carboline-2-carbonyl)-5,6,7,8-tetrahydro-imidazo[1,2-a]pyridin-2-yl]-amide]	31%
CCCCN(C(=O)c1cccc(Cl)c1)c1nc2n(c1C(=O)NC(C)CCc1ccccc1)CCCC2 (stereo not shown) [Example 145, 2-[butyl-(3-chloro-benzoyl)-amino]-5,6,7,8-tetrahydro-imidazo[1,2-a]pyridine-3-carboxylic acid (1-methyl-3-phenyl-propyl)-amide]	67%
COc1cc(OC)c(CN2CCN(C(=O)c3c(N(C)C(=O)c4cccc(Cl)c4)nc4n3CCCC4)CC2)c(OC)c1 [Example 146, 3-chloro-N-methyl-N-{3-[4-(2,4,6-trimethoxy-benzyl)-piperazine-1-carbonyl]-5,6,7,8-tetrahydro-imidazo[1,2-a]pyridin-2-yl}-benzamide]	70%
CCCCN(C(=O)c1cccc(Cl)c1)c1nc2n(c1C(=O)NC(c1ccccc1)c1ccccc1)CCCC2 [Example 147, 2-[butyl-(3-chloro-benzoyl)-amino]-5,6,7,8-tetrahydro-imidazo[1,2-a]pyridine-3-carboxylic acid benzhydryl-amide]	56%
CN(C(=O)c1cccc2ccccc12)c1nc2n(c1C(=O)N1CCN(c3ccccc3Cl)CC1)CCCC2 [Example 148, naphthalene-1-carboxylic acid {3-[4-(2-chloro-phenyl)-piperazine-1-carbonyl]-5,6,7,8-tetrahydro-imidazo[1,2-a]pyridin-2-yl}-methyl-amide]	35%
CCCCN(C(=O)c1ccc(F)c(F)c1)c1nc2n(c1C(=O)N1CCN(Cc3ccc(Cl)cc3)CC1)CCCC2 [Example 150, N-butyl-N-{3-[4-(4-chlorobenzyl)-piperazine-1-carbonyl]-5,6,7,8-tetrahydro-imidazo[1,2-a]pyridin-2-yl}-3,4-difluoro-benzamide]	69%
CCCCN(C(=O)c1cccc(Cl)c1)c1nc2n(c1C(=O)Nc1ccc(C(C)(C)C)cc1)CCCC2 [Example 152, 2-[butyl-(3-chloro-benzoyl)-amino]-5,6,7,8-tetrahydro-imidazo[1,2-a]pyridine-3-carboxylic acid (4-tert-butyl-phenyl)-amide]	92%
CN(C(=O)c1cccc2ccccc12)c1nc2n(c1C(=O)NC1CCCCC1)CCCC2 [Example 154, 2-[methyl-(naphthalene-1-carbonyl)-amino]-5,6,7,8-tetrahydro-imidazo[1,2-a]pyridine-3-carboxylic acid cyclohexylamide]	92%
CN(C(=O)Cc1ccccc1)c1nc2n(c1C(=O)NCCc1cccc(C(F)(F)F)c1)CCCC2 [Example 156, 2-(methyl-phenylacetyl-amino)-5,6,7,8-tetrahydro-imidazo[1,2-a]pyridine-3-carboxylic acid [2-(3-trifluoromethyl-phenyl)-ethyl]-amide]	40%
CN(C(=O)c1ccccc1)c1nc2n(c1C(=O)NCc1ccc(Cl)cc1)CCCC2 [Example 157, 2-(benzoyl-methyl-amino)-5,6,7,8-tetrahydro-imidazo[1,2-a]pyridine-3-carboxylic acid 4-chloro-benzylamide]	43%
CCCCN(C(=O)c1cccc(Cl)c1)c1nc2n(c1C(=O)NCc1cccc(F)c1)CCCC2 [Example 158, 2-[butyl-(3-chloro-benzoyl)-amino]-5,6,7,8-tetrahydro-imidazo[1,2-a]pyridine-3-carboxylic acid 3-fluoro-benzylamide]	33%
Cc1ccc(NC(=O)c2c(N(C)C(=O)Cc3ccccc3)nc3n2CCCC3)cc1 [Example 159, 2-(methyl-phenylacetyl-amino)-5,6,7,8-tetrahydro-imidazo[1,2-a]pyridine-3-carboxylic acid p-tolylamide]	37%
CCCCN(C(=O)c1ccc(F)c(F)c1)c1nc2n(c1C(=O)NC1CCCCC1OCc1ccccc1)CCCC2 (stereo not shown) [Example 161, 2-[butyl-(3,4-difluoro-benzoyl)-amino]-5,6,7,8-tetrahydro-imidazo[1,2-a]pyridine-3-carboxylic acid (2-benzyloxy-cyclohexyl)-amide]	49%
CC(CNC(=O)c1c(N(C)C(=O)c2cccc3ccccc23)nc2n1CCCC2)c1ccc(Cl)cc1 (stereo not shown) [Example 163, 2-[methyl-(naphthalene-1-carbonyl)-amino]-5,6,7,8-tetrahydro-imidazo[1,2-a]pyridine-3-carboxylic acid [2-(4-chlor-phenyl)-propyl]-amide]	40%
CC(NC(=O)c1c(N(C)C(=O)c2cccc(Cl)c2)nc2n1CCCC2)C12CC3CC(CC(C3)C1)C2 (stereo not shown) [Example 165, 2-[(3-chloro-benzoyl)-methyl-amino]-5,6,7,8-tetrahydro-imidazo[1,2-a]pyridine-3-carboxylic acid (1-adamantan-1-yl-ethyl)-amide]	39%
CN(C(=O)c1ccccc1)c1nc2n(c1C(=O)NC(c1ccccc1)c1ccc(Cl)cc1)CCCC2 (stereo not shown) [Example 166, 2-(benzoyl-methyl-amino)-5,6,7,8-tetrahydro-imidazo[1,2-a]pyridine-3-carboxylic acid [(4-chloro-phenyl)-phenyl-methyl]-amide]	72%
